Reference: patent publication EP4707393A1, “DOUBLE-STRANDED SIRNA, CONJUGATE THEREOF AND USE THEREOF” (CMS Research & Development Pte. Ltd., priority 2023, dated 2024)

What follows are substances tested on human LPA gene (Genbank number: NM_005577.4) (assay: Inhibitory activity against LPA mRNA, psiCHECK-2 dual-luciferase reporter vector in Huh7 cells). Settings: Huh7 cells transfected with LPA_psiCHECK-2 plasmid, RNAiMAX transfection.
Assay type: cell-based
Protocol: A stock solution was prepared by dissolving in PBS and stored at -20 °C.
The human LPA gene (Genbank number: NM_005577.4) was cloned into the psiCHECK™-2 vector.
Huh7 cells were cultured in DMEM (Gibco-11995-065, 500 mL) medium, supplemented with FBS (ExCellBio-FSP500, 57 mL), Penicillin-Streptomycin solution (Hyclone-SV30010, 5.7 mL), GlutaMAX™ (Gibco-35050-061, 5.7 mL) and Non-Essential Amino Acids Solution (Gibco-11140050, 5.7 mL).
On Day 1, a method for transfection of the LPA_PSICHECK (TM)-2 plasmid is briefly described as follows: Huh7 cells were washed with DPBS, followed by digestion with 0.05% trypsin, gently pipetted into single cells in DMEM containing 10% FBS, and counted. Plasmid DNA was transferred into Huh7 cells using Fugene HD. The transfected cells were seeded into 96-well plates at a density of 10,000 cells per well, with 100 µL culture medium per well. The cells were incubated overnight in a 5% CO2 incubator at 37 °C.
On Day 2, the test compounds were diluted serially with PBS to 3 concentrations.
RNAiMAX transfection reagent was prepared by blending homogeneously with Opti-MEM at a ratio of RNAiMAX: Opti-MEM=3:47 in a 15 mL centrifuge tube as needed. The compounds were mixed with the RNAiMAX/Opti-MEM (1:1) and incubated for 15 min. The compound-containing RNAiMAX/Opti-MEM mixture was diluted 10-fold with fresh medium and blended homogeneously.
The medium in each well was aspirated, and then 100 µL of the fresh compound-containing medium was added, and then incubated in a 5% CO2, 37 °C incubator.
Experimental procedures refer to DUAL-GLO® Dual Luciferase Assay System instructions, briefly described as follows: Taking out the cells from the incubator, aspirating and discarding the supernatant, adding 75µL fresh culture medium and 75µL detection reagent, shaking for 10 minutes in the dark, and after the cells had been fully lysed, transfering100µL sample to an opaque whiteboard for detecting the Firefly luminescence signal; adding 50 µL Dual-Glo®Stop & Glo® test reagent to each well and detecting the Renilla luciferase signal after shaking for 10 minutes in the dark. The ratio of the reporter signal to the internal control reporter signal was calculated for each well.
[formula] % Inhibition = (1-Sampleratio/RNAiMAXcontrolratio) × 100% [formula]

Going from “Z37: siRNA conjugate: sense SEQ ID NO:51, ligand D18 at 3' end of sense strand, antisense SEQ ID NO:76 (sense CCTGCCAAGCTTGGTCATCTA; antisense TAGATGNCCAAGCTTGGCNGGTT; ligand D18 at sense 3' end; listed as RNA; modified_base 1..2: mod_base = OTHER; note = 2'-O-methylcytidine; modified_base 3: mod_base = OTHER; note = 2'-O-methyluridine; modified_base 4: mod_base = OTHER; note = 2'-O-methylguanosine; modified_base 5..6: mod_base = OTHER; note = 2'-O-m; modified_base 1: mod_base = OTHER; note = E-type vinylphosphonate-modified 2'-O-methyluridine; modified_base 2: mod_base = OTHER; note = 2'-deoxyadenosine; modified_base 4: mo)” to “Z49: siRNA conjugate: sense SEQ ID NO:51, ligand D01 at 3' end of sense strand, antisense SEQ ID NO:85 (sense CCTGCCAAGCTTGGTCATCTA; antisense NAGATGNCCAAGCTTGGCNGGTT; ligand D01 at sense 3' end; listed as RNA; modified_base 1..2: mod_base = OTHER; note = 2'-O-methylcytidine; modified_base 3: mod_base = OTHER; note = 2'-O-methyluridine; modified_base 4: mod_base = OTHER; note = 2'-O-methylguanosine; modified_base 5..6: mod_base = OTHER; note = 2'-O-m; modified_base 1: mod_base = OTHER; note = n is B36; modified_base 2: mod_base = OTHER; note = 2'-deoxyadenosine; note = 2'-O-methyladenosine)”, the EC50 rises from 0.23 nM to 0.63 nM (2.7-fold). The first is the more potent here.

“Z50: siRNA conjugate: sense SEQ ID NO:51, ligand D01 at 3' end of sense strand, antisense SEQ ID NO:86 (sense CCTGCCAAGCTTGGTCATCTA; antisense TCTAGATNACCAAGCTTGGCAGG; ligand D01 at sense 3' end; listed as RNA; modified_base 1..2: mod_base = OTHER; note = 2'-O-methylcytidine; modified_base 3: mod_base = OTHER; note = 2'-O-methyluridine; modified_base 4: mod_base = OTHER; note = 2'-O-methylguanosine; modified_base 5..6: mod_base = OTHER; note = 2'-O-m; modified_base 1: mod_base = OTHER; note = 2'-fluoroadenosine; modified_base 5: mod_base = OTHER; note = 2'-O-methyl)” and “Z51: siRNA conjugate: sense SEQ ID NO:49, ligand D01 at 3' end of sense strand, antisense SEQ ID NO:87 (sense CAGCCCCTTATTGTTATACGA; antisense TCGTATNACAATAAGGGGCNGTT; ligand D01 at sense 3' end; listed as RNA; modified_base 1: mod_base = OTHER; note = 2'-O-methylcytidine; modified_base 2: mod_base = OTHER; note = 2'-O-methyladenosine; modified_base 3: mod_base = OTHER; note = 2'-O-methylguanosine; modified_base 4..7: mod_base = OTHER; note = 2'-O-me; note = 2'-O-methyluridine; note = 2'-deoxycytidine; modified_base 4: mod_base = OTHER; note = 2'-O-methyl)” are within 1.5-fold of each other in EC50: 0.41 nM for the first, 0.31 nM for the second.
